Like-named read-outs stand apart in the source and are kept apart here.
Columns and labels:
hGLP-1R = hGLP-1R (Homo sapiens, UniProt P43220); assay: Functional cAMP formation (HTRF) in HEK-293 clonal cells expressing hGLP-1R, 0.1% bovine casein, without or with 1.0% human serum albumin; format: cell-based; set-up: expressed in transfected cells; settings: for EC50: geometric mean; for Emax: percent of maximal response to GLP-1(7-36)NH2
Outline: (§1)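 Cells were stimulated with peptide for 30 min at 37° C, then intracellular cAMP was measured by competitive HTRF (665/620 nm ratio) and converted to nM using a cAMP standard curve. Relative EC50 and Emax came from four-parameter logistic fits of percent maximal response against peptide concentration.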

[1] = molecular target: T1, human GLP-1 receptor (hGLP-1R) (Homo sapiens, UniProt P43220); assay: [125I]-GLP-1 binding, SPA with membranes of HEK293 cells expressing hGLP-1R
T1 construct: expressed in transfected cells; crude membranes
T1 sequence (P43220 24-463): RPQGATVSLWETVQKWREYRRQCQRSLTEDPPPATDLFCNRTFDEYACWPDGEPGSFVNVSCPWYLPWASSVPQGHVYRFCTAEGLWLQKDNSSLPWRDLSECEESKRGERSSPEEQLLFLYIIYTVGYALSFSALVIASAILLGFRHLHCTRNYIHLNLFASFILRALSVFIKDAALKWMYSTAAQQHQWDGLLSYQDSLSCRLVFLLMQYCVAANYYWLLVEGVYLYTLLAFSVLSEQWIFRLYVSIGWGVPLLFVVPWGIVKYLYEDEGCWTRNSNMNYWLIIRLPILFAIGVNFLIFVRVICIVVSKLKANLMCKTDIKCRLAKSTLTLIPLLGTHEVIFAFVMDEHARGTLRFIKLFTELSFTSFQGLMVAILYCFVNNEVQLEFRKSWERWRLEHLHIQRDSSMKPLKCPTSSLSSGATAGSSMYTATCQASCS

[2] = molecular target: T2, human GIP receptor (hGIPR) (Homo sapiens, UniProt P48546); assay: [125I]-GIP binding, SPA with membranes of CHO cells expressing hGIPR
T2 construct: expressed in transfected cells; crude membranes
T2 sequence (P48546 22-466): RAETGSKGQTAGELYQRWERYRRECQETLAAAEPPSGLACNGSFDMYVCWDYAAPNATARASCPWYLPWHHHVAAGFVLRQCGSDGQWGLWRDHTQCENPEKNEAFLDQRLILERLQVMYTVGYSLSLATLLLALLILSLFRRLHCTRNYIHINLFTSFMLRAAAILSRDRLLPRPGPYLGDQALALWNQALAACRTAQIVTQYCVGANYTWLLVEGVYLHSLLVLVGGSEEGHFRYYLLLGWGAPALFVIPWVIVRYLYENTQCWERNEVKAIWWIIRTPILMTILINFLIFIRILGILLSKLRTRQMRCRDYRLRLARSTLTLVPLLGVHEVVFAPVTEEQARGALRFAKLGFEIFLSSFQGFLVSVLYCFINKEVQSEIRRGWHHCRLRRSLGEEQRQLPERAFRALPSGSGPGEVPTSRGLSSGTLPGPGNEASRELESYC

hGIPR = molecular target: T3, hGIPR (Homo sapiens, UniProt P48546); assay: Functional cAMP formation (HTRF) in HEK-293 clonal cells expressing hGIPR, 0.1% bovine casein, without or with 1.0% human serum albumin; format: cell-based; settings: for Emax: read-out: hGIPR Emax, % ± SEM
T3 construct: expressed in transfected cells
T3 sequence (P48546 22-466): T2 sequence (P48546 22-466)
Outline: as §1

hGCGR = molecular target: T4, hGCGR (Homo sapiens, UniProt P47871); assay: Functional cAMP formation (HTRF) in HEK-293 clonal cells expressing hGCGR, 0.1% bovine casein, without or with 1.0% human serum albumin; format: cell-based
T4 construct: expressed in transfected cells
T4 sequence (P47871 26-477): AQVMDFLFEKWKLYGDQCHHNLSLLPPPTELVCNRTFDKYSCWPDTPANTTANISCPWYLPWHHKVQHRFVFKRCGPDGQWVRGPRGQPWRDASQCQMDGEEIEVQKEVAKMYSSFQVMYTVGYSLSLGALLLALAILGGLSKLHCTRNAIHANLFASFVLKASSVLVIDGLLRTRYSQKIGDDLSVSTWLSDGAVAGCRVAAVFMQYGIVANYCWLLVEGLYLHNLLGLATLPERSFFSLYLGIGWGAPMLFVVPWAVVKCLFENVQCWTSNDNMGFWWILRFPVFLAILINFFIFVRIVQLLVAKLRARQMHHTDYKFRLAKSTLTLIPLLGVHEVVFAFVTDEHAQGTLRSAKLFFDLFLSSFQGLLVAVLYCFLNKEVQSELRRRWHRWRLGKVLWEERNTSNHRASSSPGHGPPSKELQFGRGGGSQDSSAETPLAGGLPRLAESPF
Outline: as §1

[3] = 0.1% bovine casein and 1.0% human serum albumin, 37° C., read-out: hGLP-1R EC50, nM (SEM, n)
[4] = human GLP-1R, geometric mean (SEM, n), read-out: Binding Affinity Ki, nM (SEM, n) hGLP-1R
[5] = human GIPR, geometric mean (SEM, n), read-out: Binding Affinity Ki, nM (SEM, n) hGIPR
[6] = 0.1% bovine casein and 1.0% human serum albumin, 37° C., geometric mean, read-out: hGIPR EC50, nM (SEM, n)
[7] = HEK293, 0.1% bovine casein and 1.0% human serum albumin, 37° C., percent of maximal response to GIP(1-42)NH2
[8] = HEK293, percent of maximal response to GIP(1-42)NH2, 37° C., 0.1% bovine casein, arithmetic mean
[9] = 0.1% bovine casein and 1.0% human serum albumin, 37° C., geometric mean, read-out: hGCGR EC50, nM (SEM, n)
[10] = cAMP, incubated at 37° C., 0.1% bovine casein (no human serum albumin), geometric mean, read-out: hGCGR EC50, nM (SEM, n)

Sequence of hGLP-1R (P43220 24-463): as the sequence (P43220 24-463) above

## CCCCCCCCCCCC(=O)N[C@@H](CCC(=O)NCCOCCOCC(=O)NCCOCCOCC(=O)NCCCC[C@H](NC(=O)[C@H](CO)NC(=O)[C@@H]1CCCN1C(=O)[C@@H]1CCCN1C(=O)[C@@H]1CCCN1C(=O)[C@H](C)NC(=O)CNC(=O)[C@H](CO)NC(=O)[C@H](CO)NC(=O)[C@@H]1CCCN1C(=O)CNC(=O)CNC(=O)[C@H](CCC(=O)O)NC(=O)[C@@H](NC(=O)[C@H](CC(C)C)NC(=O)[C@](C)(Cc1ccc(O)cc1)NC(=O)[C@@H](CCC(=O)O)NC(=O)[C@@H](NC(=O)[C@H](Cc1ccccc1)NC(=O)[C@H](CCC(=O)O)NC(=O)C(C)(C)NC(=O)[C@H](CCC(N)=O)NC(=O)[C@H](C)NC(=O)[C@H](CCCCNC(=O)COCCOCCNC(=O)COCCOCCNC(=O)CC[C@H](NC(=O)CCCCCCCCCCC)C(=O)O)NC(=O)[C@H](CCCN)NC(=O)[C@H](CC(=O)O)NC(=O)[C@H](CC(C)C)NC(=O)[C@](C)(CC(C)C)NC(=O)[C@@H](NC(=O)[C@H](CO)NC(=O)[C@H](Cc1ccncc1)NC(=O)[C@H](CC(=O)O)NC(=O)[C@H](CO)NC(=O)[C@@H](NC(=O)[C@](C)(Cc1ccccc1F)NC(=O)[C@@H](NC(=O)CNC(=O)[C@H](CCC(=O)O)NC(=O)C(C)(C)NC(=O)[C@@H](N)Cc1ccc(O)cc1)[C@@H](C)O)[C@@H](C)O)[C@@H](C)CC)[C@@H](C)CC)[C@@H](C)CC)C(N)=O)C(=O)O [Example 141]
hGLP-1R; [3]
  EC50: 5.78 nM
hGLP-1R; HEK293, 0.1% bovine casein and 1.0% human serum albumin, 37° C., read-out: hGLP-1R Emax, % ± SEM
  Emax: 115 ± 2.04%
[1]; [4]
  Ki: 0.194 nM
[2]; [5]
  Ki: 0.0291 nM
hGIPR; [6]
  EC50: 0.379 nM
hGIPR; [7]
  Emax: 96 ± 7.42%
hGIPR; [8]
  Emax: 98.8 ± 1.09%
hGCGR; [9]
  EC50: > 9950 nM
hGCGR; [10]
  EC50: > 9950 nM

## CC[C@H](C)[C@H](NC(=O)[C@H](CC(C)C)NC(=O)[C@](C)(Cc1ccc(O)cc1)NC(=O)[C@@H](CCC(=O)O)NC(=O)[C@@H](NC(=O)[C@H](Cc1ccccc1)NC(=O)[C@H](CCC(=O)O)NC(=O)C(C)(C)NC(=O)[C@H](CCC(N)=O)NC(=O)[C@H](C)NC(=O)[C@H](CCCCNC(=O)COCCOCCNC(=O)COCCOCCNC(=O)CC[C@H](NC(=O)CCCc1ccc(I)cc1)C(=O)O)NC(=O)[C@H](CCCN)NC(=O)[C@H](CC(=O)O)NC(=O)[C@H](CC(C)C)NC(=O)[C@](C)(CC(C)C)NC(=O)[C@@H](NC(=O)[C@H](CO)NC(=O)[C@H](Cc1ccncc1)NC(=O)[C@H](CC(=O)O)NC(=O)[C@H](CO)NC(=O)[C@@H](NC(=O)[C@](C)(Cc1ccccc1F)NC(=O)[C@@H](NC(=O)CNC(=O)[C@H](CCC(=O)O)NC(=O)C(C)(C)NC(=O)[C@@H](N)Cc1ccc(O)cc1)[C@@H](C)O)[C@@H](C)O)[C@@H](C)CC)[C@@H](C)CC)C(=O)N[C@@H](CCC(=O)O)C(=O)NCC(=O)NCC(=O)N[C@@H](CCCCNC(=O)COCCOCCNC(=O)COCCOCCNC(=O)CC[C@H](NC(=O)CCCc1ccc(I)cc1)C(=O)O)C(=O)N[C@@H](CO)C(=O)N[C@@H](CO)C(=O)NCC(=O)N[C@@H](C)C(=O)N1CCC[C@H]1C(=O)N1CCC[C@H]1C(=O)N1CCC[C@H]1C(=O)N[C@@H](CO)C(N)=O [Example 3]
hGLP-1R; [3]
  EC50: 1.05 nM
hGLP-1R; cAMP, incubated at 37° C., 0.1% bovine casein (no human serum albumin), read-out: hGLP-1R EC50, nM (SEM, n)
  EC50: 0.223 nM
[1]; [4]
  Ki: 0.471 nM
[2]; [5]
  Ki: 0.0629 nM
hGIPR; [6]
  EC50: 0.0971 nM
hGIPR; [7]
  Emax: 80%
hGIPR; [8]
  Emax: 95.9 ± 2.95%
hGIPR; cAMP, incubated at 37° C., 0.1% bovine casein (no human serum albumin), geometric mean, read-out: hGIPR EC50, nM (SEM, n)
  EC50: 0.0133 nM
hGCGR; [9]
  EC50: > 9950 nM
hGCGR; [10]
  EC50: > 9950 nM

## CC[C@H](C)[C@H](NC(=O)[C@H](CC(C)C)NC(=O)[C@](C)(Cc1ccc(O)cc1)NC(=O)[C@@H](CCC(=O)O)NC(=O)[C@@H](NC(=O)[C@H](Cc1ccccc1)NC(=O)[C@H](CCCCNC(=O)COCCOCCNC(=O)CC[C@H](NC(=O)CCCCCCCCCOc1ccc(C(=O)O)cc1)C(=O)O)NC(=O)C(C)(C)NC(=O)[C@H](CCC(N)=O)NC(=O)[C@H](C)NC(=O)[C@H](CCCCNC(=O)COCCOCCNC(=O)CC[C@H](NC(=O)CCCCCCCCCOc1ccc(C(=O)O)cc1)C(=O)O)NC(=O)[C@H](CCCN)NC(=O)[C@H](CC(=O)O)NC(=O)[C@H](CC(C)C)NC(=O)[C@](C)(CC(C)C)NC(=O)[C@@H](NC(=O)C(C)(C)NC(=O)[C@H](Cc1ccncc1)NC(=O)[C@H](CC(=O)O)NC(=O)[C@H](CO)NC(=O)[C@@H](NC(=O)[C@](C)(Cc1ccccc1F)NC(=O)[C@@H](NC(=O)CNC(=O)[C@H](CCC(=O)O)NC(=O)C(C)(C)NC(=O)[C@@H](N)Cc1ccc(O)cc1)[C@@H](C)O)[C@@H](C)O)[C@@H](C)CC)[C@@H](C)CC)C(=O)N[C@@H](CCC(=O)O)C(=O)NCC(=O)NCC(=O)N1CCC[C@H]1C(=O)N[C@@H](CO)C(=O)N[C@@H](CO)C(=O)NCC(=O)N[C@@H](C)C(=O)N1CCC[C@H]1C(=O)N1CCC[C@H]1C(=O)N1CCC[C@H]1C(=O)N[C@@H](CO)C(N)=O [Example 360]
hGLP-1R; HEK293, read-out: hGLP-1R Emax, % ± SEM, cAMP, 37° C., 0.1% bovine casein and 1.0% human serum albumin
  Emax: 97.1%
hGLP-1R; HEK293, read-out: hGLP-1R Emax, % ± SEM, cAMP, 37° C., 0.1% bovine casein, arithmetic mean
  Emax: 89.8%
hGLP-1R; hGLP-1R EC50, nM (SEM, n), cAMP, 37° C., 0.1% bovine casein (no human serum albumin)
  EC50: 0.301 nM
[1]
  Ki: 0.673 nM
[2]
  Ki: 0.046 nM
hGIPR; hGIPR EC50, nM (SEM, n), cAMP, 37° C., 0.1% bovine casein (no human serum albumin), geometric mean
  EC50: 0.0121 nM
hGCGR; hGCGR EC50, nM (SEM, n), cAMP, 37° C., 0.1% bovine casein (no human serum albumin), geometric mean
  EC50: > 9950 nM
hGCGR; hGCGR EC50, nM (SEM, n), cAMP, 37° C., 0.1% bovine casein and 1.0% human serum albumin, geometric mean (SEM, n)
  EC50: > 9950 nM

## CC[C@H](C)[C@H](NC(=O)[C@H](CC(C)C)NC(=O)[C@](C)(Cc1ccc(O)cc1)NC(=O)[C@H](CCCCNC(=O)COCCOCCNC(=O)CCCCCNC(=O)CC[C@H](NC(=O)CCCCCCCCCCCCC(=O)O)C(=O)O)NC(=O)[C@@H](NC(=O)[C@H](Cc1ccccc1)NC(=O)[C@H](CCCN)NC(=O)C(C)(C)NC(=O)[C@H](CCC(N)=O)NC(=O)[C@H](C)NC(=O)[C@H](CCC(N)=O)NC(=O)[C@H](CCCN)NC(=O)[C@H](CC(=O)O)NC(=O)[C@H](CC(C)C)NC(=O)[C@](C)(CC(C)C)NC(=O)[C@@H](NC(=O)C(C)(C)NC(=O)[C@H](Cc1ccncc1)NC(=O)[C@H](CC(=O)O)NC(=O)[C@H](CO)NC(=O)[C@@H](NC(=O)[C@](C)(Cc1ccccc1F)NC(=O)[C@@H](NC(=O)CNC(=O)[C@H](CCC(=O)O)NC(=O)C(C)(C)NC(=O)[C@@H](N)Cc1ccc(O)cc1)[C@@H](C)O)[C@@H](C)O)[C@@H](C)CC)[C@@H](C)CC)C(=O)N[C@@H](CCCCNC(=O)COCCOCCNC(=O)CCCCCNC(=O)CC[C@H](NC(=O)CCCCCCCCCCCCC(=O)O)C(=O)O)C(=O)NCC(=O)NCC(=O)N1CCC[C@H]1C(=O)N[C@@H](CO)C(=O)N[C@@H](CO)C(=O)NCC(=O)N[C@@H](C)C(=O)N1CCC[C@H]1C(=O)N1CCC[C@H]1C(=O)N1CCC[C@H]1C(=O)N[C@@H](CO)C(N)=O [Example 449]
hGLP-1R; HEK293, cAMP, 37° C., 0.1% bovine casein, arithmetic mean, read-out: hGLP-1R Emax, % ± SEM
  Emax: 112%
hGLP-1R; cAMP, 37° C., 0.1% bovine casein (no human serum albumin), read-out: hGLP-1R EC50, nM (SEM, n)
  EC50: 0.16 nM
[1]; [4]
  Ki: 0.201 nM
[2]; [5]
  Ki: 0.0133 nM
hGIPR; HEK293, cAMP, 37° C., 0.1% bovine casein and 1.0% human serum albumin, percent of maximal response to GIP(1-42)NH2
  Emax: 92.1%
hGIPR; cAMP, 37° C., 0.1% bovine casein (no human serum albumin), geometric mean, read-out: hGIPR EC50, nM (SEM, n)
  EC50: 0.0102 nM
hGIPR; cAMP, 37° C., 0.1% bovine casein and 1.0% human serum albumin, geometric mean (SEM, n), read-out: hGIPR EC50, nM (SEM, n)
  EC50: 0.595 nM
hGCGR; cAMP, 37° C., 0.1% bovine casein (no human serum albumin), geometric mean, read-out: hGCGR EC50, nM (SEM, n)
  EC50: > 9950 nM
hGCGR; cAMP, 37° C., 0.1% bovine casein and 1.0% human serum albumin, geometric mean (SEM, n), read-out: hGCGR EC50, nM (SEM, n)
  EC50: > 9950 nM

From US20230265151A1, “GIP/GLP1 CO-AGONIST COMPOUNDS” (priority 2020, published 2023)
